# US20030165919A1, “Method for the analysis of exogenic and endogenic cell activiation based on measuring the aggregation of receptors” (priority 2000, published 2003)
# Experiments:
# Assay type in all cases: cell-based
# [1] = target: T1, CD11b and CD14 (Homo sapiens, UniProt P08571); assay: FRET flow cytometry: co-assembly of CD11b and CD14 on monocytes
# T1 construct: endogenous in cells; host or cells: human monocytes in heparinised whole blood (healthy donors and patients)
# T1 sequence (P08571 20-345 limits assumed): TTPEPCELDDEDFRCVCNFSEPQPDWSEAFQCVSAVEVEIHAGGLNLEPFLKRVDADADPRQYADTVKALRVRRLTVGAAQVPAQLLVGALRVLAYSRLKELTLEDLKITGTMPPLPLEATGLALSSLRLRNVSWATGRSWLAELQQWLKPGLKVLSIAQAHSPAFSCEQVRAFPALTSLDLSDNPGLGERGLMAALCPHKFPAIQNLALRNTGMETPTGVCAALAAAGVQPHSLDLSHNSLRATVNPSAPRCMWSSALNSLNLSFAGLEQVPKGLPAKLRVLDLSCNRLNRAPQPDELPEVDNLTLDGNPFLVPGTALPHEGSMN
# Description: (§1) Aliquots […] of whole blood were incubated with the following stimulatory compounds at 37° C. for 15 minutes: LPS of Salmonella minnesota (0.1-10 nM, Mw 10 kDa), ceramide (primarily stearic acid and nervonic acid) and sulfogalactosyl ceramide (SG-cer, […]), both of which tested LPS free in the LAL assay (Cer, 1 nM-5.5 mM), lysophosphatidyl choline (lyso-PC, 10 mM), phorbol-12-myristate-13-acetate (PMA, 1 mM), N-formyl-L-methionyl-L-leucyl-L-phenyl alamine (fMLP, 1 mM), PE, PC, PI and PS liposomes (10 mm) which had been prepared as described above. All reagents were obtained from Sigma. In addition, the cells were stimulated with HPS70 (7 nM), dHSP70 (7 nM) and SG-cer+dHSP70 (40 nM+7 nM). After incubation, the cells were washed with cold PBS containing 0.1% of NaN3. The synthetic LPS antagonist lipid IVa (“compound-406”, 1-400 ng/ml) and lipid A derived from E. coli (1-100 ng/ml) were made available by courtesy of Dr. S. Kusumoto. The cells were pre-incubated with the LPS antagonist at 37° C. for 15 minutes and then stimulated with LPS at the same temperature (without washing).
# (§2) Whole blood cells which had been stimulated or washed ex vivo […] were incubated on ice for 15 minutes with saturation concentrations of monoclonal fluorochrom-conjugated or biotinylated antibodies. The monoclonal antibodies CD11a (clone 25.3.1), CD16a (clone 3G8). CD18 (clone 7E4), CD14 (clone RMO52), CD33 (clone My9-RD1). CD81 (clone Js64) were obtained as R-phyco-erythrine (R-PE) conjugates and CD25 (clone B1.49.9) in biotinylated form from Coulter/Immunotech (Krefeld, Germany). CD11b (clone d12), CD11c (clone S-HCL-3), CD36 (clone CB38), CD47 (clone B6H12), CD81 (clone JS-81) and (Cd55 (clone IA10) in biotinylated form and Streptavidin-R-PE were purchased from Becton/Dickinson/Pharningen (Heidelberg, Germany) CD18 (clone IB4) in biontinylated form and CD40 (clone EA-5) as R-PE conjugate were obtained from Alexis (Grünberg, Germany) and CD14 (clones ×8 and Uchml) and CD3 (clone Cris-7) in biotinylated form and Streptavidin-Cy5 (Sa-Cy5) from Dianova (Hamburg, Germany), CD32 (clone C1KM5) and CD64 (clone 10.1) were obtained as R-PE conjugates from Caltag (Burlingame, U.S.A.) and CD91 (clone 8G1) in biotinylated form from Proen (Heidelberg, Germany). A monoclonal anti-TLRA antibody (clone HTA125) was kindly provided by Dr. Kensuke. Since no energy transfer between the antibodies directed against the CD14/CD11a and CD14/CD11c pairs was detectable either on resting or on stimulated cells, these antibody combinations were not characterised further.
# Lysis of erythrocytes and washing were carried out as described (Rothe et al., Thromb. Vasc. Biol. 16 (1996), 1437-1447). After the last washing step, the samples were divided and part of each sample incubated with a saturating amount of SA-Cy5 on ice for 15 minutes and washed before measuring.
# For energy transfer experiments, […] aliquots of whole blood were treated with cholesterol/methyl cyclodextrine (C/C) (100 mg/ml/4.6 mg/ml) or 2-hydroxypropyl-β-cyclodextrine (0.15 mg/ml) at 37° C. for 30 minutes and then stimulated further with LPS (4 nM) or ceramide (40 nM) as described above. The energy transfer between CD14 and CD11b was measured.
# A “FACSCalibur” flow cytometer (Becton Dickinson) equipped with an air-cooled 15 mW argon laser (excitation wavelength 488 nm), a diode laser (excitation wavelength […]) and standard filters [channel 1 (FITC): 530/30 nm band pass filter; channel 2 (R-PE being used as donor dye); 585/47 nm band pass filter; channel 3 (PerCP): pass having a length of >670 nm; and channel 4 (Cy5being used as recipient dye): 661/16 nm bad pass filter] was used. The Cellquest software (Becton Dickinson) was used for the measurements. […] Measurement was conducted without compensation. 50,000 leukocytes were required in the “list” modus, forward scattering (FSC) being used as a trigger signal. […]
# [2] = target: T2, CD18(7E4)/CD14 (×8) (Homo sapiens, UniProt P08571); assay: FRET co-assembly of CD18 with CD14 on monocytes; conditions: LPS 4 nM, ceramide 40 nM, LTA 1 μg/ml, HSP70 7 nM; mean ± SD of 10 experiments; >5% = positive transfer
# T2 construct: endogenous in cells; host or cells: human monocytes in whole blood
# T2 sequence (P08571 20-345 limits assumed): T1 sequence (P08571 20-345 limits assumed)
# Description: as §1
# (§3) Whole blood cells which had been stimulated or washed ex vivo […] were incubated on ice for 15 minutes with saturation concentrations of monoclonal fluorochrom-conjugated or biotinylated antibodies. The monoclonal antibodies CD11a (clone 25.3.1), CD16a (clone 3G8). […]
# [3] = target: T3, CD36/CD14 (×8) (Homo sapiens, UniProt P08571); assay: FRET co-assembly of CD36 with CD14 on monocytes; conditions: LPS 4 nM, ceramide 40 nM, LTA 1 μg/ml, HSP70 7 nM; mean ± SD of 10 experiments; >5% = positive transfer
# T3 construct: endogenous in cells; host or cells: human monocytes in whole blood
# T3 sequence (P08571 20-345 limits assumed): T1 sequence (P08571 20-345 limits assumed)
# Description: as §1, §3
# [4] = target: T4, CD55/CD14 (Uchm1) (Homo sapiens, UniProt P08571); assay: FRET co-assembly of CD55 with CD14 on monocytes; conditions: LPS 4 nM, ceramide 40 nM, LTA 1 μg/ml, HSP70 7 nM; mean ± SD of 10 experiments; >5% = positive transfer
# T4 construct: endogenous in cells; host or cells: human monocytes in whole blood
# T4 sequence (P08571 20-345 limits assumed): T1 sequence (P08571 20-345 limits assumed)
# Description: as §1, §3
# [5] = target: T5, CD81/CD14 (×8) (Homo sapiens, UniProt P08571); assay: FRET co-assembly of CD81 with CD14 on monocytes; conditions: LPS 4 nM, ceramide 40 nM, LTA 1 μg/ml, HSP70 7 nM, mean ± SD of 10 experiments
# T5 construct: endogenous in cells; host or cells: human monocytes in whole blood (donors; also sepsis and CAD patients)
# T5 sequence (P08571 20-345 limits assumed): T1 sequence (P08571 20-345 limits assumed)
# Description: as §1
# as §2, with “further. […]” for “further.”
# [6] = target: T6, TLR-4/CD14 (×8) (Homo sapiens, UniProt P08571); assay: FRET co-assembly of TLR-4 with CD14 on monocytes; conditions: LPS 4 nM, ceramide 40 nM, LTA 1 μg/ml, HSP70 7 nM; mean ± SD of 10 experiments; >5% = positive transfer
# T6 construct: endogenous in cells; host or cells: human monocytes in whole blood
# T6 sequence (P08571 20-345 limits assumed): T1 sequence (P08571 20-345 limits assumed)
# Description: as §1, §3
# [7] = target: T7, CD32/CD14 (Uchm1) (Homo sapiens, UniProt P08571); assay: FRET co-assembly of CD32 with CD14 on monocytes; conditions: LPS 4 nM, ceramide 40 nM, LTA 1 μg/ml, HSP70 7 nM; mean ± SD of 10 experiments; >5% = positive transfer
# T7 construct: endogenous in cells; host or cells: human monocytes in whole blood
# T7 sequence (P08571 20-345 limits assumed): T1 sequence (P08571 20-345 limits assumed)
# Description: as §1, §3
# [8] = target: T8, CD64/CD14 (Uchm1) (Homo sapiens, UniProt P08571); assay: FRET co-assembly of CD64 with CD14 on monocytes; conditions: LPS 4 nM, ceramide 40 nM, LTA 1 μg/ml, HSP70 7 nM; mean ± SD of 10 experiments; >5% = positive transfer
# T8 construct: endogenous in cells; host or cells: human monocytes in whole blood
# T8 sequence (P08571 20-345 limits assumed): T1 sequence (P08571 20-345 limits assumed)
# Description: as §1, §3
# [9] = target: T9, CD47/CD14 (Uchm1) (Homo sapiens, UniProt P08571); assay: FRET co-assembly of CD47 with CD14 on monocytes; conditions: LPS 4 nM, ceramide 40 nM, LTA 1 μg/ml; mean ± SD of 10 experiments; >5% = positive transfer
# T9 construct: endogenous in cells; host or cells: human monocytes in whole blood
# T9 sequence (P08571 20-345 limits assumed): T1 sequence (P08571 20-345 limits assumed)
# Description: as §1, §3
# [10] = target: T10, CD16/CD14 (Uchm1) (Homo sapiens, UniProt P08571); assay: FRET co-assembly of CD16 with CD14 on monocytes; conditions: LPS 4 nM, ceramide 40 nM, LTA 1 μg/ml; mean ± SD of 10 experiments; >5% = positive transfer
# T10 construct: endogenous in cells; host or cells: human monocytes in whole blood
# T10 sequence (P08571 20-345 limits assumed): T1 sequence (P08571 20-345 limits assumed)
# Description: as §1, §3
substance,measurement,setting,value
ceramide,co-assembly of CD11b and CD14 (energy transfer between monoclonal antibodies),"[1]; human monocytes in whole blood, stimulation with the substance alone, 37° C. 15 minutes",induces the transfer of CD14 into a receptor cluster
same,EC50,"[1]; human monocytes, FIG. 1b, read-out: EC50cer, ceramide-induced energy transfer between antibodies against CD11b and CD14 (clone ×8)",~0.1 nM
same,energy transfer CD18(7E4)/CD14 (×8),[2],5.4 ± 0.8 %
same,energy transfer CD36/CD14 (×8),[3],10.1 ± 1.0 %
same,energy transfer CD55/CD14 (Uchm1),[4],9.7 ± 1.5%
same,energy transfer CD81 (JS-81)/CD14 (×8),[5]; CD81 clone JS-81,3.1 ± 2.4%
same,energy transfer CD81 (Js64)/CD14 (×8),[5]; CD81 clone Js64,2.8 ± 0.7%
same,energy transfer TLR-4/CD14 (×8),[6],3.2 ± 2.5%
same,energy transfer CD32/CD14 (Uchm1),[7],11.6 ± 3.4%
same,energy transfer CD64/CD14 (Uchm1),[8],10.4 ± 1.3%
same,energy transfer CD47/CD14 (Uchm1),[9],11.9 ± 3.1%
same,energy transfer CD16/CD14 (Uchm1),[10],3.2 ± 5.6%
